Results: patent US20040192771A1, “Ether compounds and compositions for cholesterol management and related uses” (priority 2001, published 2004)
Like-named read-outs stand apart in the source and are kept apart here.

Tests used:
primary rat hepatocytes = test: Inhibition of lipid synthesis ([1-14C]-acetate incorporation) in primary cultures of rat hepatocytes; type: cell-based; conditions: Hepatocyte, total lipid synthesis, 4 hours incubation
Experimental: Compounds were tested for inhibition of lipid synthesis in primary cultures of rat hepatocytes. Male Sprague-Dawley rats were anesthetized with intraperitoneal injection of sodium pentobarbital (80 mg/kg). Rat hepatocytes were isolated essentially as described by the method of Seglen (Seglen, P. O. Hepatocyte suspensions and cultures as tools in experimental carcinogenesis. J. Toxicol. Environ. Health 1979, 5, 551-560). Hepatocytes were suspended in Dulbecco's Modified Eagles Medium containing 25 mM D-glucose, 14 mM HEPES, 5 mM L-glutamine, 5 mM leucine, 5 mM alanine, 10 mM lactate, 1 mM pyruvate, 0.2% bovine serum albumin, 17.4 mM non-essential amino acids, 20% fetal bovine serum, 100 nM insulin and 20 μg/mL gentamycin) and plated at a density of 1.5×10^5 cells/cm^2 on collagen-coated 96-well plates. Four hours after plating, media was replaced with the same media without serum. Cells were grown overnight to allow formation of monolayer cultures. Lipid synthesis incubation conditions were initially assessed to ensure the linearity of [1-^14C]-acetate incorporation into hepatocyte lipids for up to 4 hours. Hepatocyte lipid synthesis inhibitory activity was assessed during incubations in the presence of 0.25 μCi [1-^14C]-acetate/well (final radiospecific activity in assay is 1 Ci/mol) and 0, 1, 3, 10, 30, 100 or 300 μM of compounds for 4 hours. At the end of the 4-hour incubation period, medium was discarded and cells were washed twice with ice-cold phosphate buffered saline and stored frozen prior to analysis. To determine total lipid synthesis, 170 μl of MicroScint-E® and 50 μl water was added to each well to extract and partition the lipid soluble products to the upper organic phase containing the scintillant. Lipid radioactivity was assessed by scintillation spectroscopy in a Packard TopCount NXT.

obese female Zucker rats = test: Oral daily treatment of obese female Zucker rats for fourteen days; serum lipids and glycemic control indicators; type: in vivo; conditions: Rattus norvegicus, percent change from study prebleed; for change in vivo at 30 mg/kg/day: 30 mg/kg/day oral; for change in vivo at 100 mg/kg/day: 100 mg/kg/day oral
Experimental: In a number of different experiments, illustrative compounds of the invention are administered daily at a dose of up to 100 mg/kg to chow fed obese female Zucker rats for fourteen days in the morning by oral gavage in 1.5% carboxymethylcellulose/0.2% Tween 20 or 20% ethanol/80% polyethylene glycol (dosing vehicles). Animals are weighed daily. Animals are allowed free access to rodent chow and water throughout the study except on days of blood sampling where food is restricted for six hours prior to blood sampling. Blood glucose is determined after the 6 hour fast in the afternoon without anesthesia from a tail vein. Serum is also prepared from pretreatment blood samples subsequently obtained from the orbital venous plexus (with O2/CO2 anesthesia) and following the fourteenth dose at sacrifice from the heart following O2/CO2 anesthesia. Serums are assayed for lipoprotein cholesterol profiles, triglycerides, total cholesterol, Non HDL cholesterol, HDL cholesterol, the ratio of HDL cholesterol to that of Non HDL cholesterol, insulin, non esterified fatty acids, and beta hydroxy butyric acid. The percent body weight gain and the ratio of liver to body weight is also determined. These are shown as absolute values or as a percent change of the pretreatment values in Table C. [drawing 479] [drawing 480]

[1] = 168 h, week 1, read-out: Glucose
[2] = 168 h, week 1, read-out: Insulin
[3] = 168 h, week 1, read-out: Non-HDL-C
[4] = 336 h, week 2, read-out: Glucose
[5] = 336 h, week 2, read-out: Insulin
[6] = 336 h, week 2, read-out: Non-HDL-C

SMILES | IC50 (primary rat hepatocytes) | change in vivo at 30 mg/kg/day (obese female Zucker rats; [1]) | change in vivo at 30 mg/kg/day (obese female Zucker rats; 168 h, week 1, read-out: HDL-C) | change in vivo at 30 mg/kg/day (obese female Zucker rats; [2]) | change in vivo at 30 mg/kg/day (obese female Zucker rats; [3]) | change in vivo at 30 mg/kg/day (obese female Zucker rats; 168 h, week 1, read-out: TC) | change in vivo at 30 mg/kg/day (obese female Zucker rats; 168 h, week 1, read-out: TG) | change in vivo at 30 mg/kg/day (obese female Zucker rats; [4]) | change in vivo at 30 mg/kg/day (obese female Zucker rats; 336 h, week 2, read-out: HDL-C) | change in vivo at 30 mg/kg/day (obese female Zucker rats; [5]) | change in vivo at 30 mg/kg/day (obese female Zucker rats; [6]) | change in vivo at 30 mg/kg/day (obese female Zucker rats; 336 h, week 2, read-out: TC) | change in vivo at 30 mg/kg/day (obese female Zucker rats; 336 h, week 2, read-out: TG) | change in vivo at 100 mg/kg/day (obese female Zucker rats; [1]) | change in vivo at 100 mg/kg/day (obese female Zucker rats; 168 h, week 1, read-out: HDL-C) | change in vivo at 100 mg/kg/day (obese female Zucker rats; [2]) | change in vivo at 100 mg/kg/day (obese female Zucker rats; [3]) | change in vivo at 100 mg/kg/day (obese female Zucker rats; 168 h, week 1, read-out: TC) | change in vivo at 100 mg/kg/day (obese female Zucker rats; 168 h, week 1, read-out: TG) | change in vivo at 100 mg/kg/day (obese female Zucker rats; [4]) | also measured
CC(C)(CO)CCCCOCCCCC(C)(C)CO [Compound 128, 6-(6-Hydroxy-5,5-dimethylhexyloxy)-2,2dimethylhexan-1-ol] | 10 µM | 2% | 174% | 48% | -14% | 131% | -52% | 44% | 349% | 48% | 59% | 224% | -39% | – | – | – | – | – | – | – | –
CC(C)(CO)CCCCOCCCCC(C)(CO)c1ccccc1 (stereo not shown) [Compound 129, 6-(6-Hydroxy-5-methyl-5-phenylhexyloxy)-2,2-dimethyl-hexan-1-ol] | 4.7 µM | – | – | – | – | – | – | – | – | – | – | – | – | 14% | 26% | 2% | -55% | -6% | -61% | 4% | change in vivo at 100 mg/kg/day (obese female Zucker rats; 336 h, week 2, read-out: HDL-C): 52%; change in vivo at 100 mg/kg/day (obese female Zucker rats; [5]): 6%; change in vivo at 100 mg/kg/day (obese female Zucker rats; [6]): -13%; change in vivo at 100 mg/kg/day (obese female Zucker rats; 336 h, week 2, read-out: TC): 26%; change in vivo at 100 mg/kg/day (obese female Zucker rats; 336 h, week 2, read-out: TG): -45%
CC(C)(CO)CCCCCOCCCCC(C)(C)CO [Compound 130, 7-(6-Hydroxy-5,5-dimethylhexyloxy)-2,2-dimethylheptan-1-ol] | 8.4 µM | 6% | 71% | 25% | -26% | 41% | -66% | 6% | 105% | 13% | 17% | 77% | -47% | – | – | – | – | – | – | – | –
CC(C)(CO)CCCCCOCCCCCC(C)(C)CO [Compound 131, 7-(7-Hydroxy-6,6-dimethylheptyloxy)-2,2-dimethylheptan-1-ol] | 3.8 µM | – | – | – | – | – | – | – | – | – | – | – | – | -6% | 292% | 40% | -79% | 85% | -91% | -5% | change in vivo at 100 mg/kg/day (obese female Zucker rats; 336 h, week 2, read-out: HDL-C): 289%; change in vivo at 100 mg/kg/day (obese female Zucker rats; [5]): -1%; change in vivo at 100 mg/kg/day (obese female Zucker rats; [6]): -57%; change in vivo at 100 mg/kg/day (obese female Zucker rats; 336 h, week 2, read-out: TC): 106%; change in vivo at 100 mg/kg/day (obese female Zucker rats; 336 h, week 2, read-out: TG): -88%
CC(C)(CO)CCCOCCOCCCC(C)(C)CO [Compound 149, 5-[2-(5-Hydroxy-4,4-dimethylpentyloxy)-ethoxy]-2,2-dimethylpentan-1-ol] | – | -20% | 37% | -40% | -48% | -7% | -37% | -27% | 17% | -26% | -27% | -7% | -30% | – | – | – | – | – | – | – | –
